# ChEMBL document CHEMBL3885881, “DrugMatrix”
# Species: Rattus norvegicus
# Assay: DrugMatrix - Regimen: Daily Repeat
# Type: toxicity, organism-based, Sprague-Dawley
# Design: regimen Daily Repeat, gender Male, age 6-8 weeks
# Details: in vivo, po, 500 mg/kg, route oral GAVAGE, dose level High, vehicle .5 % CMC; for ABSOLUTE BASOPHIL / ABSOLUTE EOSINOPHIL / ABSOLUTE LYMPHOCYTE / ABSOLUTE MONOCYTE / ABSOLUTE SEGMENTED NEUTROPHIL / BASOPHIL / EOSINOPHIL / ERYTHROCYTE COUNT / HEMATOCRIT / HEMOGLOBIN / LEUKOCYTE COUNT / LYMPHOCYTE / MEAN CORPUSCULAR HEMOGLOBIN / MEAN CORPUSCULAR HEMOGLOBIN CONCENTRATION / MEAN CORPUSCULAR VOLUME / MONOCYTE / NEUTROPHIL / NUCLEATED RED BLOOD CELLS / PLATELET COUNT: tissue Blood; for ALANINE AMINOTRANSFERASE / ALBUMIN / ALKALINE PHOSPHATASE / ASPARTATE AMINOTRANSFERASE / BLOOD UREA NITROGEN / CARBON DIOXIDE / CHLORIDE / CHOLESTEROL / CREATININE / GLUCOSE / LACTATE DEHYDROGENASE / LIPASE / PHOSPHORUS / POTASSIUM / SODIUM / TOTAL BILIRUBIN / TOTAL PROTEIN / URIC ACID: tissue Plasma
smiles,measurement,setting,value
Clc1ccccc1 [CHLOROBENZENE],ABSOLUTE BASOPHIL,"120 h, time 5 day",0 CELLS/uL
same,ABSOLUTE EOSINOPHIL,"120 h, time 5 day",83.67 CELLS/uL
same,ABSOLUTE LYMPHOCYTE,"120 h, time 5 day",5790.33 CELLS/uL
same,ABSOLUTE MONOCYTE,"120 h, time 5 day",83 CELLS/uL
same,ABSOLUTE SEGMENTED NEUTROPHIL,"120 h, time 5 day",376.33 CELLS/uL
same,BASOPHIL,"120 h, time 5 day",0%
same,EOSINOPHIL,"120 h, time 5 day",1.33%
same,ERYTHROCYTE COUNT,"120 h, time 5 day",6.34 x10E6/uL
same,HEMATOCRIT,"120 h, time 5 day",37.73%
same,HEMOGLOBIN,"120 h, time 5 day",13.57 G/DL
same,LEUKOCYTE COUNT,"120 h, time 5 day",6.33 x10E3/uL
same,LYMPHOCYTE,"120 h, time 5 day",91.33%
same,MEAN CORPUSCULAR HEMOGLOBIN,"120 h, time 5 day",21.37 pg
same,MEAN CORPUSCULAR HEMOGLOBIN CONCENTRATION,"120 h, time 5 day",35.9 G/DL
same,MEAN CORPUSCULAR VOLUME,"120 h, time 5 day",59.6 fL
same,MONOCYTE,"120 h, time 5 day",1.33%
same,NEUTROPHIL,"120 h, time 5 day",6%
same,NUCLEATED RED BLOOD CELLS,"120 h, time 5 day",0 /100WBC
same,PLATELET COUNT,"120 h, time 5 day",998.67 x10E3/uL
same,ALANINE AMINOTRANSFERASE,"120 h, time 5 day",58 u/L
same,ALBUMIN,"120 h, time 5 day",4.13 G/DL
same,ALKALINE PHOSPHATASE,"120 h, time 5 day",325 u/L
same,ASPARTATE AMINOTRANSFERASE,"120 h, time 5 day",91 u/L
same,BLOOD UREA NITROGEN,"120 h, time 5 day",16 mg/dL
same,CARBON DIOXIDE,"120 h, time 5 day",31.67 mmol/L
same,CHLORIDE,"120 h, time 5 day",102.67 MEQ/L
same,CHOLESTEROL,"120 h, time 5 day",68 mg/dL
same,CREATININE,"120 h, time 5 day",0.19 mg/dL
same,GLUCOSE,"120 h, time 5 day",160.67 mg/dL
same,LACTATE DEHYDROGENASE,"120 h, time 5 day",181.33 u/L
same,LIPASE,"120 h, time 5 day",9.33 u/L
same,PHOSPHORUS,"120 h, time 5 day",11.9 mg/dL
same,POTASSIUM,"120 h, time 5 day",5.74 MEQ/L
same,SODIUM,"120 h, time 5 day",150.1 MEQ/L
same,TOTAL BILIRUBIN,"120 h, time 5 day",0.2 mg/dL
same,TOTAL PROTEIN,"120 h, time 5 day",6.07 G/DL
same,URIC ACID,"120 h, time 5 day",1.8 mg/dL
same,ABSOLUTE BASOPHIL,"[…], time 14 day",0 CELLS/uL
same,ABSOLUTE EOSINOPHIL,"[…], time 14 day",209.6 CELLS/uL
same,ABSOLUTE LYMPHOCYTE,"[…], time 14 day",11694.6 CELLS/uL
same,ABSOLUTE MONOCYTE,"[…], time 14 day",390 CELLS/uL
same,ABSOLUTE SEGMENTED NEUTROPHIL,"[…], time 14 day",1365.8 CELLS/uL
same,BASOPHIL,"[…], time 14 day",0%
same,EOSINOPHIL,"[…], time 14 day",1.4%
same,ERYTHROCYTE COUNT,"[…], time 14 day",6.07 x10E6/uL
same,HEMATOCRIT,"[…], time 14 day",35.18%
same,HEMOGLOBIN,"[…], time 14 day",13 G/DL
same,LEUKOCYTE COUNT,"[…], time 14 day",13.86 x10E3/uL
same,LYMPHOCYTE,"[…], time 14 day",85.2%
same,MEAN CORPUSCULAR HEMOGLOBIN,"[…], time 14 day",21.48 pg
same,MEAN CORPUSCULAR HEMOGLOBIN CONCENTRATION,"[…], time 14 day",37 G/DL
same,MEAN CORPUSCULAR VOLUME,"[…], time 14 day",58.06 fL
same,MONOCYTE,"[…], time 14 day",3%
same,NEUTROPHIL,"[…], time 14 day",10.4%
same,NUCLEATED RED BLOOD CELLS,"[…], time 14 day",0 /100WBC
same,PLATELET COUNT,"[…], time 14 day",916.8 x10E3/uL
same,ALANINE AMINOTRANSFERASE,"[…], time 14 day",59 u/L
same,ALBUMIN,"[…], time 14 day",4.22 G/DL
same,ALKALINE PHOSPHATASE,"[…], time 14 day",464.4 u/L
same,ASPARTATE AMINOTRANSFERASE,"[…], time 14 day",88.8 u/L
same,BLOOD UREA NITROGEN,"[…], time 14 day",16 mg/dL
same,CARBON DIOXIDE,"[…], time 14 day",28.4 mmol/L
same,CHLORIDE,"[…], time 14 day",102.2 MEQ/L
same,CHOLESTEROL,"[…], time 14 day",70.2 mg/dL
same,CREATININE,"[…], time 14 day",0.16 mg/dL
same,GLUCOSE,"[…], time 14 day",130.8 mg/dL
same,LACTATE DEHYDROGENASE,"[…], time 14 day",283.8 u/L
same,LIPASE,"[…], time 14 day",10.2 u/L
same,PHOSPHORUS,"[…], time 14 day",11.26 mg/dL
same,POTASSIUM,"[…], time 14 day",6.64 MEQ/L
same,SODIUM,"[…], time 14 day",147.56 MEQ/L
same,TOTAL BILIRUBIN,"[…], time 14 day",0.28 mg/dL
same,TOTAL PROTEIN,"[…], time 14 day",6.16 G/DL
same,URIC ACID,"[…], time 14 day",1.56 mg/dL
